Measured values reported in US20240391940A1, “FUSED RING-CONTAINING COMPOUND, APPLICATION THEREOF, AND COMPOSITION CONTAINING SAME” (GenEros Biopharma Ltd., priority 2020, published 2024).
Read-outs that look alike come from different tables or passages of the source.

Columns and labels:
[1] = PK profile in beagles (i.v. / oral gavage, plasma LC-MS); format: in vivo; conditions: female, beagle, dog, analyte = labelled compound
Text: Method: SD rats from acceptable sources (N=3, female, 6-8 weeks, weighing 200-230 g, purchased from JH Laboratory Animal Co. LTD, SCXK (SH) 2017-0012 20170012001153) or beagles (N=3, not experimentally naive animals, female, weighing 6.55-8.62 kg, purchased from Beijing Marshall Biotech Co. Ltd., quality inspection number SCXK (BJ) 2016-0001 110318201100068072) were selected and administered, by intravenous injection or oral gavage (3 animals per route), corresponding doses of the test compound GEN1-117 or GEN1-284s (the sample for intravenous injection was dissolved in a solution of 10% DMSO, 10% Soltol HS15 and 80% PBS, and the sample for oral administration was dissolved in a 0.5% aqueous methylcellulose solution). Peripheral blood samples (150 μL) were taken (at 0, 0.083, 0.25, 0.5, 1, 2, 4, 8 and 24 h for the intravenous injection route; at 0, 0.25, 0.5, 1, 2, 4, 8 and 24 h for the oral injection route; into K2-EDTA anticoagulant tubes; centrifuged at 2000 g at 4 C for 5 min within 15 min), and plasma was separated and subjected to LC-MS analysis (LC-MS/MS-37, triple Quad 6500) using the conventional method with diclofenac as an internal standard. Mass spectrometry conditions: ESI cation, MRM detection:
HPLC conditions: mobile phase A: 0.1% FA in water, mobile phase B: 0.1% FA in ACN
Chromatography column: Waters ACQUITY UPLC HSS T3 (2.1×50 mm, 1.8 μm)
A test sample standard curve was prepared from 1, 2, 10, 30, 100, 300, 1000, 2700 and 3000 ng/mL (50% ACN in water), and 3 μL of standard-curve solution was mixed with 57 μL of same-species blank plasma. A test plasma sample (60 μL) was well mixed with 6 μL of 10% FA in water, and 30 μL of the mixture was taken and well mixed with 200 μL of the internal standard compound diclofenac (40 ng/mL in ACN). After the resulting mixture was vortexed and shaken for 1 min and centrifuged at 5800 rpm for 10 min, 100 μL of the supernatant was transferred to a new test plate, and 1 μL of solution was loaded on an LC-MS/MS system.

[2] = target: T1, hERG (Homo sapiens, UniProt Q12809); test: hERG ion channel inhibition, automated QPatch on CHO cells expressing hERG; format: cell-based; conditions: human, CHO cells stably expressing hERG channels
T1 construct: expressed in transfected cells; host or cells: CHO cells, stably transfected
T1 sequence (Q12809 whole entry): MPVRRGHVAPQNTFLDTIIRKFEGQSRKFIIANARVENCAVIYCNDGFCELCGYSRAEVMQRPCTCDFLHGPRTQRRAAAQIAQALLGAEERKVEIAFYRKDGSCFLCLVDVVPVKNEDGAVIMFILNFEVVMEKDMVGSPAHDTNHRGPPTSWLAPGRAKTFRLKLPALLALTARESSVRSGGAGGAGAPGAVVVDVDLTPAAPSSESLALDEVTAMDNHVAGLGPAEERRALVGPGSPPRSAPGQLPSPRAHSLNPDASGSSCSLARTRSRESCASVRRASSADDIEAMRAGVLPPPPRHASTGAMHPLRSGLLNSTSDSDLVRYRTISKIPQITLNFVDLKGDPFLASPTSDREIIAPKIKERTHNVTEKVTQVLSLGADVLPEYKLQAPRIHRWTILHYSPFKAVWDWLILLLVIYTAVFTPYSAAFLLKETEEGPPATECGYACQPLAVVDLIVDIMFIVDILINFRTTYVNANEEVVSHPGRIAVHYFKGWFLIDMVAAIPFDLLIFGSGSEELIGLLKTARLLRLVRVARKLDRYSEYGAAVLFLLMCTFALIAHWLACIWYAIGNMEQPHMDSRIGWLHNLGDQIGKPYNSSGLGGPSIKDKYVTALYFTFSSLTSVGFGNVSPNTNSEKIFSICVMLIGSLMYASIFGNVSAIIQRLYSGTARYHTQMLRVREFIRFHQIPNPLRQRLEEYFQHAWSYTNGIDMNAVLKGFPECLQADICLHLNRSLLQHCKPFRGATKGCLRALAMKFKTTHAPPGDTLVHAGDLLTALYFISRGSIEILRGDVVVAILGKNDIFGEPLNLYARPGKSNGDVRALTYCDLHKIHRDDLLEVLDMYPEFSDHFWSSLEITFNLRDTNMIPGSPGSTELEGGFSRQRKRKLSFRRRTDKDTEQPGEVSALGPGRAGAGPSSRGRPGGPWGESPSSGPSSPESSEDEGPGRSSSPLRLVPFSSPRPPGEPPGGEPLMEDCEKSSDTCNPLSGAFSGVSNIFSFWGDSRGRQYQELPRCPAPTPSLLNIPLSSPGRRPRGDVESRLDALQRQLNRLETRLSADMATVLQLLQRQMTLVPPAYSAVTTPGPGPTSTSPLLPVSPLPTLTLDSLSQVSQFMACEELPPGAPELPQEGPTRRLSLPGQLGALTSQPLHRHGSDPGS
Protocol: (§1) A CHO cell line stably transfected with cDNA and expressing hERG channels of P15 was used for the study.
(§2) Cells were maintained in Petri dishes or flasks at 37° C. in a humidified incubator with 5% CO2 and cultured in a medium containing Ham's F12, 10% (v/v) heat-inactivated FBS, 100 μg/mL hygromycin B and 100 μg/mL geneticin (from Invitrogen). The cells were allowed to grow and reach a confluency of about 80-90% under the above conditions. Before the experiment, the cells were treated with Detachin (from Genlantis) for 3-5 min, at 37° C., then gently mixed well with medium at room temperature, and titrated 15-20 times with a pipette. Then the cells were resuspended in a serum-free medium containing CHO—S-SFM II medium (from Invitrogen) buffered with HEPES (25 mM). The cells used in QPatch study must meet the following criteria: under microscopy examination, the majority of cells in suspension should be single and isolated; their viability should be greater than 95%, with only a small amount of debris and cell clumps (which may clog the holes in QPlate during whole-cell clamp recording); the cell density should be within the range of 3-8×10^6 cells/mL in the final suspension before application to the QPatch stir chamber. Cells under such conditions can be used for recording only within four hours of being harvested.
(§3) Data acquisition was performed using automated QPatch (Sophion Biosciences, Denmark). The cells were voltage-clamped at a holding potential of −80 mV. The hERG current was activated by depolarization at +20 mV for 5 s, after which the current was activated back to −50 mV for 2.5 s to remove the inactivation and observe the outward tail current. The maximum amount of tail current was used to determine hERG current amplitude.
(§4) Six doses (30, 10, 3, 1, 0.3 and 0.1 μM) were selected to obtain a fitted curve and IC^50. The compound was prepared into serial dilutions in 3, 1, 0.3 and 0.1 mM DMSO vehicle to the final M ranges before the QPatch test. 5-10 minutes' ultrasonication and vortexing were generally used for solution to help completely dissolve the compound. The final DMSO concentration was 0.1% or lower, except that for the 30 μM point, the DMSO concentration was about 0.3%.
(§5) After achieving break-in (whole-cell) configuration, the cells were recorded for 120 s to assess current stability. The voltage settings described above were then applied to the cells once every 15 s throughout the whole process. Only stable cells with recording parameters above threshold were allowed to enter the drug assessment procedure. All the experiments were conducted at room temperature (about 25° C.).
(§6) An external solution containing 0.1% DMSO (vehicle) was applied to the cells to establish a baseline. After allowing the current to stabilize for 3 min, the compound was added. The compound solution was added and the cells were kept in the test solution until the effect of the compound reached a steady state or for a maximum of 4 min. For dose response assays, the compound was applied cumulatively to the cells from low to high concentrations. Washing with external solution was performed after compound testing. The positive control cisapride was used in the experiments to test the same batch of cells used for test compounds to ensure the normal response and the good quality of the cells.

[3] = target: T2, hERG ion channel (Homo sapiens, UniProt Q12809); test: as above; format: cell-based; conditions: for Inhibitory activity against hERG (conclusion): 0.1-30 μM; for inhibition at 0.3 µM / inhibition at 1 µM / inhibition at 3 µM: human, CHO cells stably expressing hERG channels
T2 construct: expressed in transfected cells; host or cells: CHO cells, stably transfected
T2 sequence (Q12809 whole entry): as above
Protocol: as §1, §2, §3, §4, §5, §6

[4] = iv, GEN1-284s dosed i.v. 0.5 mg/kg
[5] = po, GEN1-284s dosed p.o. 5 mg/kg
[6] = read-out: % of hERG inhibition, Cell 1
[7] = read-out: % of hERG inhibition, Cell 2
[8] = read-out: Mean % hERG inhibition

SMILES	AUC(0-t) [1, 4] [ng·h/mL]	half-life [1, 4] [h]	inhibition at 0.1 µM [2, 6] [%]	inhibition at 0.1 µM [2, 7] [%]	inhibition at 0.1 µM [2, 8] [%]	inhibition at 0.3 µM [2, 6] [%]	inhibition at 10 µM [2, 6] [%]	inhibition at 10 µM [2, 7] [%]	inhibition at 10 µM [2, 8] [%]	inhibition at 30 µM [2, 6] [%]	inhibition at 30 µM [2, 7] [%]	inhibition at 30 µM [2, 8] [%]	Inhibitory activity against hERG (conclusion) [3]	inhibition at 0.3 µM [3, 7] [%]	inhibition at 0.3 µM [3, 8] [%]	inhibition at 1 µM [3, 6] [%]	inhibition at 1 µM [3, 7] [%]	inhibition at 1 µM [3, 8] [%]	inhibition at 3 µM [3, 6] [%]	inhibition at 3 µM [3, 7] [%]	further results
O=C(Cc1ccc2ncccc2c1)N1CCC(n2c(=O)[nH]c3cccc(C(F)(F)F)c32)CC1 [GEN1-117, 1-(1-(2-(Quinolin-6-yl)acetyl)piperidin-4-yl)-7-(trifluoromethyl)-1H-benzo[d]imidazol-2(3H)-one]	2000	4.06	3.84	-0.21	1.81	3.95	12.8	19.3	16	12.8	19.3	16	no significant inhibitory activity against hERG	4.17	4.06	7.99	13.4	10.7	11	13.3	AUC(0-t) [1, 5]: 17900 ng·h/mL; Cmax [1, 5]: 2770 ng/mL; Tmax [1, 5]: 1.33 h; bioavailability [1, 5]: 89.8%; half-life [1, 5]: 4.18 h; inhibition at 3 µM [3, 8]: 12.2%
O=C(Cc1ccc2ncccc2c1)N1CCC(n2c(=O)n(COP(=O)([O-])[O-])c3cccc(C(F)(F)F)c32)CC1.[Na+].[Na+] [GEN1-284 salt, (2-Oxo-3-(1-(2-(quinolin-6-yl)acetyl)piperidin-4-yl)-4-(trifluoromethyl)-2,3-dihydro-1H-benzo[d]imidazol-1-yl)methyl disodium phosphate]	207	0.085	2.22	8.28	5.25	10.2	9.28	3.41	6.34	19.1	8.86	13.9	no significant inhibitory activity against hERG	2.25	6.24	2.88	0	1.44	0	2.66	clearance [1, 4]: 43.5 mL/min/kg; Vd ([1]; iv, GEN1-284s dosed i.v. 0.5 mg/kg, read-out: Vdss): 0.155 L/kg; inhibition at 3 µM [3, 8]: 1.33%
